Several values for one entry are separate records, joined by “and”; a condition that tells them apart may be missing. Identical values can stand only once.
Legend:
thrombin = biological target: T1, thrombin (Homo sapiens, UniProt P00734); experiment: Irreversible inhibition kinetics of thrombin (fluorogenic substrate progress curves); assay type: biochemical; conditions: PBS pH 7.4, 37°C, mean ± SD (n=2)
T1 construct: apparent molecular mass of 31 kDa, corresponding to the heavy (catalytic) chain of the protease; purchased R&D Systems
Experimental: (§1) A range of inhibitor concentrations were prepared from a 10 mM stock solution of the test compounds (NAP533, NAP559, NAP800, NAP830, NAP849, and NAP962) in N, N-dimethylformamide (DMF). Recombinant protease activities were assayed using the cognate fluorogenic substrates as follows: trypsin (Z-Gly-Gly-Arg-NHMec), thrombin (Boc-Val-Pro-Arg-NHMec), plasmin (Boc-Val-Leu-Lys-NHMec), human neutrophil elastase (MeO-Succinyl-Ala-Ala-Pro-Val-NHMec), and chymotrypsin (Succinyl-Ala-Ala-Pro-Phe-NHMec). Each substrate was used at a final concentration of 50 μM, in the appropriate buffer for each protease. All inhibition assays were performed in microtiter plates maintained at 37°C in a final volume of 100 μL. The reaction was initiated by the addition of each protease (approx. 0.01 μg/well) and the rate of substrate hydrolysis was recorded continuously at 37°C, over a 60 min period, by measuring the rate of increase in fluorescence (at λex 360 nm, λem 480 nm) using a FLUOstar Optima microplate reader (BMG Labtech).
(§2) The resultant inhibition progress curves obtained for each inhibitor were analyzed by the kinetic models developed by [Tian and Tsou (1982)] and [Walker and Elmore (1984)], for irreversible inhibitors, with curve fitting being achieved using GraFit (Erithacus Software), as described previously ([Ferguson et al., 2016]).
Protease inactivation by each of the compounds under study was evaluated using a fluorogenic enzyme assays. Protease-substrate combinations used as detailed in Section 2. Inhibitors were made up as 10 mM stock solutions in either DMF or DMSO, then diluted with PBS (pH 7.4) to give appropriate working concentrations. A final volume of 100 μL was used per well. […] Increase in fluorescence was recorded using a FLUOstar OPTIMA spectrofluorometer (BMG Labtech), excitation 380 nm and emission 460 nm, for 61 cycles (60 seconds/cycle), with results analysed using MARS Data Analysis Software (BMG Labtech). […]

neutrophil elastase (NE) = biological target: T2, neutrophil elastase (NE) (Homo sapiens, UniProt P08246); experiment: Irreversible inhibition kinetics of neutrophil elastase (fluorogenic substrate progress curves); assay type: biochemical
T2 construct: purchased Calbiochem
T2 sequence (P08246 30-267): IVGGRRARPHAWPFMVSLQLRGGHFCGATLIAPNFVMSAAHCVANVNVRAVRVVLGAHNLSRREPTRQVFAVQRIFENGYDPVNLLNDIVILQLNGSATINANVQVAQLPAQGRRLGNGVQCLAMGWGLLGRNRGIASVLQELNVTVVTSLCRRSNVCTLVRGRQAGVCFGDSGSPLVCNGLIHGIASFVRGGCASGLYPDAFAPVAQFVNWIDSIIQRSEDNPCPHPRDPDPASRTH
Experimental: as §1, §2
(§3) FIGURE 4 Progress curves for (A), chymotrypsin-catalysed hydrolysis of Succinyl-Ala-Ala-Pro-Phe-NHMec, in the presence of varying concentrations of NAP849. (B), NE-catalysed hydrolysis of MeO-succinyl-Ala-Ala-Pro-Val-NHMec, in the presence of varying concentrations of NAP800. (C) Trypsin-catalysed of Z-Gly-Gly-Arg-NHMec, in the presence of NAP830. (D) Plasmin-catalysed hydrolysis of Boc-Val-Leu-Lys-NHMec, in the presence of varying concentrations of NAP962. Assays were carried out in PBS, pH 7.4, at 37°C, in the presence of a range of inhibitor concentrations (0.25–50 μM) and a fixed concentration (50 μM) of the appropriate substrate for each protease.
(§4) The “product progress” curves for substrate hydrolysis in the presence of an inhibitor (Figure 4) are indicative of the action of irreversible inhibitors operating through the kinetic scheme illustrated in Figure 6. In this scheme, the formation of the reversible enzyme–inhibitor complex (EI) is zcharacterized by the inhibitor constant K i. This is converted into the covalent/irreversible complex (E-I) characterized by a first-order rate constant k 3. The overall second-order rate constant for the inactivation of E by I is given by the ratio k 3/K i ([Walker and Elmore, 1984]; [Tsou, 1988]). […]
(§5) Protease inactivation by each of the compounds under study was evaluated using a fluorogenic enzyme assays. […]

chymotrypsin = biological target: T3, chymotrypsin (Bos taurus, UniProt P00766); experiment: Irreversible inhibition kinetics of chymotrypsin (fluorogenic substrate progress curves); assay type: biochemical, bovine
T3 construct: purchased Sigma-Aldrich (supplement); Calbiochem; host or cells: bovine pancreas
Experimental: as §1, §2, §3, §4, §5

N=C(N)NCCCN(CC(=O)N1CCC[C@H]1C(=O)N(CC(N)=O)Cc1ccccc1)C(=O)ON1C(=O)CCC1=O [NAP559, Succinimidoyl-CO-NArg-D-Pro-NPhe-NH2]
KI (inactivation) (thrombin; Boc-Val-Pro-Arg-NHMec 50µM): 5.67 µM
k 3 (thrombin; first-order rate constant): 0.6 (± 0.068) min^-1
k 3 / K i (thrombin; second-order rate constant): 1.1 (± 0.3) x 10^5 M^-1 min^-1

CC(C)N(CC(=O)NCC(=O)NCC(=O)NCCCOCCOCCOCCCNC(=O)CCCCC1SCC2NC(=O)NC21)C(=O)ON1C(=O)CCC1=O (stereo not drawn) [NAP800, Succinimidoyl-CO-NVal-Gly-Gly-PEG-Biotin]
Ki (neutrophil elastase (NE); MeO-Succinyl-Ala-Ala-Pro-Val-NHMec 50 μM, PBS pH 7.4, 37°C, mean ± SD (n=2)): 6 µM
k 3 (neutrophil elastase (NE); first-order rate constant, PBS pH 7.4, 37°C, mean ± SD (n=2)): 0.38(± 0.06) min^−1
second-order rate constant (k 3/K i) relative to the analogous valine diphenyl phosphonate QUBEL1 (neutrophil elastase (NE); fold greater than QUBEL1): approximately five-fold
k 3 / K i (neutrophil elastase (NE); second-order rate constant of inactivation, PBS pH 7.4, 37°C, mean ± SD (n=2)): 6.41 × 10^4 M^−1 min^−1 and 6.4 (± 0.57) × 10^4 M^−1 min^−1

O=C(CCCCC1SCC2NC(=O)NC21)NCCCOCCOCCOCCCNC(=O)CNC(=O)CNC(=O)CN(Cc1ccccc1)C(=O)ON1C(=O)CCC1=O (stereo not drawn) [NAP849, Succinimidoyl-CO-NPhe-Gly-Gly-PEG-Biotin]
Ki (chymotrypsin; Succinyl-Ala-Ala-Pro-Phe-NHMec 50 μM, PBS pH 7.4, 37°C, mean ± SD (n=3)): 0.89 µM
k 3 (chymotrypsin; first-order rate constant, PBS pH 7.4, 37°C, mean ± SD (n=3)): 0.85 (± 0.29) min^−1
second-order rate constant relative to the analogous phenylalanine diphenyl phosphonate QUBCL1 (chymotrypsin; fold greater than QUBCL1): approximately ten-fold
k 3 / K i (chymotrypsin; second-order rate constant of inactivation, PBS pH 7.4, 37°C, mean ± SD (n=3)): 1.28 × 10^6 M^−1 min^−1 and 1.28 (± 0.44) × 10^6 M^−1 min^−1

From article PMC9555310, “Novel inhibitors and activity-based probes targeting serine proteases” (Frontiers in Chemistry, 2022)
